# Where a name gives a salt, the structure may show the parent alone. Read-outs that look alike come from different tables or passages of the source.
# What was measured:
# Assay type in all cases: cell-based, human
# HTT mRNA = experiment: RT-qPCR splicing assay, HTT canonical junction (CJ) and alternative junction (AJ) mRNA; conditions: Homo sapiens; for AC50: increase in HTT alternative junction (AJ) mRNA, read-out: HTT AJ AC50
# How it was run: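 Splicing switches were read by TaqMan RT-qPCR on lysates, quantifying exon-exon junctions of the canonical and alternative-exon isoforms. Lysates came from K562 (GAPDH/GUSB reference) or A673 (PPIA reference) cells exposed 24 h to compound in 11 threefold steps from 10 uM, with DMSO ≤0.25%.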
# SMN2 mRNA = experiment: RT-qPCR splicing assay, SMN2 canonical junction (CJ) mRNA; conditions: Homo sapiens; Table 5 panel; canonical junction qPCR; compound concentration having 50% response in CJ decrease; read-out: SMN2 IC50 (decrease in CJ mRNA levels)
# How it was run: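 K562/A673 cells, 11-pt 3-fold compound titration from 10 uM final, DMSO ≤0.25%, 24 h 37 °C 5% CO2; lyse (DNase I or Igepal/Tris buffer pH 7.4); RT-qPCR for CJ isoform vs housekeeping gene (GAPDH/GUSB/PPIA).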
# Target C = experiment: HiBiT protein abundance assay, Target C (Promega Nano-Glo HiBiT Lytic Detection System, knock-in K562 cell line); conditions: Homo sapiens, K562, 24 h, HiBiT K562 cell line, 24 hours, top dose 10 μM; read-out: Effect on protein abundance, Target C (IC50 category)
# How it was run: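 Protein abundance was read by Nano-Glo HiBiT lytic luminescence after 24 h compound exposure (10-point, threefold series from 10 μM final) of HiBiT knock-in K562 cells. Parental K562 served as baseline; the 50%-abundance concentration was interpolated from a four-parameter logistic fit.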
# [1] = decrease in HTT canonical junction (CJ) mRNA, RT-qPCR, read-out: HTT CJ IC50
# [2] = Table 5 panel, canonical junction qPCR, compound concentration having 50% response in CJ decrease, read-out: HTT IC50 (decrease in CJ mRNA levels)
SMILES,IC50 (HTT mRNA; [1]),AC50 (HTT mRNA; RT-qPCR),IC50 (HTT mRNA; [2]),IC50 (SMN2 mRNA),IC50 (Target C)
"Cc1cn2cc(-c3cc(F)c4c(=O)n([C@@H]5CNC[C@@H]5C)ccc4c3)cc(F)c2n1 [Compound 653, 8-fluoro-6-(8-fluoro-2-methyl-imidazo[1,2-a]pyridin-6-yl)-2-[(3S,4S)-4-methylpyrrolidin-3-yl]isoquinolin-1-one]",> 10000 nM,> 10000 nM,> 10000 nM,100 to 1000 nM,> 10000 nM
"Cc1cn2nc(-c3ccc4c(=O)n(C5CCNCC5)ccc4c3)cc(CO)c2n1 [Compound 525, 6-[8-(hydroxymethyl)-2-methyl-imidazo[1,2-b]pyridazin-6-yl]-2-(4-piperidyl) isoquinolin-1-one]",100 to 1000 nM,< 100 nM,< 100 nM,< 100 nM,100 to 1000 nM
Cc1nc2c(C)cc(-c3cc(F)c4c(=O)n(C5CCNC6(CC6)C5)ncc4c3)cc2o1 (stereo not drawn) [Compound 555],< 100 nM,< 100 nM,< 100 nM,< 100 nM,100 to 1000 nM
Cc1cn2cc(-c3cc(F)c4c(=O)n([C@H]5CNC[C@@H]5F)ccc4c3)cc(F)c2n1 [Compound 644],> 10000 nM,> 10000 nM,> 10000 nM,100 to 1000 nM,> 10000 nM
CCN1CCC(n2ncc3cc(-c4cc(C)c5nc(C)cn5n4)cc(F)c3c2=O)CC1 [Compound 537],< 100 nM,< 100 nM,< 100 nM,< 100 nM,100 to 1000 nM
"Cc1cn2nc(-c3ccc4c(=O)n(C5CCNCC5)ccc4c3)cc(Oc3ccccc3)c2n1 [Compound 519, 6-(2-methyl-8-phenoxy-imidazo[1,2-b]pyridazin-6-yl)-2-(4-piperidyl)isoquinolin-1-one]",< 100 nM,< 100 nM,< 100 nM,< 100 nM,< 100 nM
"Cc1cn2nc(-c3ccc4c(=O)n(C5CCNCC5)ccc4c3)cc(C(=O)N(C)C)c2n1 [Compound 524, N, N, 2-trimethyl-6-[1-oxo-2-(4-piperidyl)-6-isoquinolyl]imidazo[1,2-b]pyridazine-8-carboxamide]",> 10000 nM,> 10000 nM,> 10000 nM,> 10000 nM,> 10000 nM
"CC(=O)Nc1cc(-c2cc(C)c3nc(C)cn3n2)cc2ccn([C@@H]3CCNC3)c(=O)c12 [Compound 650, N-[6-(2,8-dimethylimidazo[1,2-b]pyridazin-6-yl)-1-oxo-2-[(3R)-pyrrolidin-3-yl]-8-isoquinolyl]acetamide]",> 10000 nM,> 10000 nM,> 10000 nM,1000 to 10000 nM,> 10000 nM
"Cc1cn2nc(-c3cc4ccn([C@@H]5CCNC5)c(=O)c4cc3O)cc(C)c2n1 [Compound 640, 6-(2,8-dimethylimidazo[1,2-b]pyridazin-6-yl)-7-hydroxy-2-[(3R)-pyrrolidin-3-yl]isoquinolin-1-one]",1000 to 10000 nM,100 to 1000 nM,100 to 1000 nM,< 100 nM,1000 to 10000 nM
Cc1cn2nc(-c3cc(F)c4c(=O)n([C@@H]5CCN(C)C6(CC6)C5)ncc4c3)cc(C)c2n1 [Compound 637],< 100 nM,< 100 nM,< 100 nM,< 100 nM,< 100 nM
"Cc1cn2nc(-c3ccc4c(=O)n(C5CCNCC5)ccc4c3)cc(CC(N)=O)c2n1 [Compound 528, 2-(2-methyl-6-(1-oxo-2-(piperidin-4-yl)-1,2-dihydroisoquinolin-6-yl)imidazo[1,2-b]pyridazin-8-yl) acetamide]",1000 to 10000 nM,100 to 1000 nM,100 to 1000 nM,< 100 nM,100 to 1000 nM
"CCc1cn(C2CCNCC2)c(=O)c2c(F)cc(-c3cc(F)c4nc(C)cn4c3)cc12 [Compound 558, 4-ethyl-8-fluoro-6-{8-fluoro-2-methylimidazo[1,2-a]pyridin-6-yl}-2-(piperidin-4-yl)isoquinolin-1-one]",1000 to 10000 nM,1000 to 10000 nM,1000 to 10000 nM,< 100 nM,1000 to 10000 nM
Cc1cn2cc(-c3cc(F)c4c(=O)n(C5CCNC6(CC6)C5)ncc4c3)cc(Cl)c2n1 (stereo not drawn) [Compound 556],100 to 1000 nM,100 to 1000 nM,100 to 1000 nM,< 100 nM,100 to 1000 nM
"CCOC(=O)c1cc(-c2ccc3c(=O)n(C4CCNCC4)ccc3c2)nn2cc(C)nc12 [Compound 529, ethyl 2-methyl-6-[1-oxo-2-(4-piperidyl)-6-isoquinolyl]imidazo[1,2-b]pyridazine-8-carboxylate]",1000 to 10000 nM,100 to 1000 nM,100 to 1000 nM,< 100 nM,100 to 1000 nM
CCN1CCC(n2ncc3cc(-c4cc(C)c5nc(C)cn5n4)cc(O)c3c2=O)CC1 [Compound 542],< 100 nM,< 100 nM,< 100 nM,< 100 nM,< 100 nM
"Cc1cn2nc(-c3ccc4c(=O)n(C5CCNCC5)ccc4c3)cc(C(N)=O)c2n1 [Compound 523, 2-methyl-6-[1-oxo-2-(4-piperidyl)-6-isoquinolyl]imidazo[1,2-b]pyridazine-8-carboxamide]",1000 to 10000 nM,> 10000 nM,> 10000 nM,100 to 1000 nM,1000 to 10000 nM
CN1CCN(c2ccc3c(=O)n(-c4ccc5cn(C)nc5c4)cnc3c2)CC1 [Compound 178],> 10000 nM,> 10000 nM,> 10000 nM,> 10000 nM,> 10000 nM
"CNC(=O)Cc1cc(-c2ccc3c(=O)n(C4CCNCC4)ccc3c2)nn2cc(C)nc12 [Compound 534, N-methyl-2-[2-methyl-6-[1-oxo-2-(4-piperidyl)-6-isoquinolyl]imidazo[1,2-b]pyridazin-8-yl]acetamide]",1000 to 10000 nM,1000 to 10000 nM,1000 to 10000 nM,< 100 nM,1000 to 10000 nM
Cc1cn2nc(-c3cc(F)c4c(=O)n(C5CCN(CCF)CC5)ncc4c3)cc(C)c2n1 [Compound 538],< 100 nM,< 100 nM,< 100 nM,< 100 nM,100 to 1000 nM
"Cc1cn2nc(-c3ccc4c(=O)n(C5CCNCC5)ncc4c3)cc(Oc3ccccc3)c2n1 [Compound 549, 6-(2-methyl-8-phenoxy-imidazo[1,2-b]pyridazin-6-yl)-2-(4-piperidyl) phthalazin-1-one]",< 100 nM,< 100 nM,< 100 nM,< 100 nM,< 100 nM
"Cc1cn2nc(-c3ccc4c(=O)n(C5CCNCC5)ccc4c3)cc(Oc3ccc(F)cc3)c2n1 [Compound 546, 6-[8-(4-fluorophenoxy)-2-methyl-imidazo[1,2-b]pyridazin-6-yl]-2-(4-piperidyl) isoquinolin-1-one; hydrochloride]",< 100 nM,< 100 nM,< 100 nM,< 100 nM,< 100 nM
"CNc1cc(-c2cc(C)c3nc(C)cn3n2)cc2ccn([C@@H]3CCNC3)c(=O)c12 [Compound 648, 6-(2,8-dimethylimidazo[1,2-b]pyridazin-6-yl)-8-(methylamino)-2-[(3R)-pyrrolidin-3-yl]isoquinolin-1-one]",> 10000 nM,> 10000 nM,> 10000 nM,100 to 1000 nM,> 10000 nM
"Cn1ccc2nn(-c3ccc4c(=O)n(C5CCNCC5)ccc4c3)cc2c1=O [Compound 522, 6-{5-methyl-4-oxopyrazolo[4,3-c]pyridin-2-yl}-2-(piperidin-4-yl)isoquinolin-1-one]",> 10000 nM,> 10000 nM,> 10000 nM,1000 to 10000 nM,> 10000 nM
"CC(=O)Nc1cc(-c2cc(C)c3nc(C)cn3n2)cc2ccn([C@H]3CCNC3)c(=O)c12 [Compound 649, N-[6-(2,8-dimethylimidazo[1,2-b]pyridazin-6-yl)-1-oxo-2-[(3S)-pyrrolidin-3-yl]-8-isoquinolyl]acetamide]",1000 to 10000 nM,1000 to 10000 nM,1000 to 10000 nM,100 to 1000 nM,1000 to 10000 nM
Cc1nc2c(C)cc(-c3ccc4c(=O)n(C5CCNC6(CC6)C5)ncc4c3)cc2o1 (stereo not drawn) [Compound 513],100 to 1000 nM,100 to 1000 nM,100 to 1000 nM,100 to 1000 nM,1000 to 10000 nM
"CNC(=O)c1cc(-c2ccc3c(=O)n(C4CCNCC4)ccc3c2)nn2cc(C)nc12 [Compound 518, N, 2-dimethyl-6-[1-oxo-2-(4-piperidyl)-6-isoquinolyl]imidazo[1,2-b]pyridazine-8-carboxamide]",> 10000 nM,> 10000 nM,> 10000 nM,100 to 1000 nM,1000 to 10000 nM
"Cc1cn2nc(-c3ccc4c(=O)n(C5CCNCC5)ccc4c3)cc(Oc3cccc(F)c3)c2n1 [Compound 545, 6-[8-(3-fluorophenoxy)-2-methyl-imidazo[1,2-b]pyridazin-6-yl]-2-(4-piperidyl)isoquinolin-1-one; hydrochloride]",< 100 nM,< 100 nM,< 100 nM,< 100 nM,< 100 nM

# From US20250332173A1, “COMPOUNDS AND METHODS FOR MODULATING NUCLEIC ACID SPLICING” (REMIX THERAPEUTICS INC., priority 2021, published 2025)
